Read-outs that look alike come from different tables or passages of the source.
How the values were obtained:
[1] = biological target: T1, CETP (Homo sapiens, UniProt P11597); assay: CETP fluorescence test; assay type: biochemical; conditions: CETP from human plasma, transfer of fluorescent cholesterol ester between liposomes, 37° C., 4 hours; read-out: IC50 [nM] Fluor. test
T1 construct: enriched CETP fraction, obtained from human plasma by means of hydrophobic chromatography; from tissue; host or cells: human plasma
T1 sequence (P11597 18-493): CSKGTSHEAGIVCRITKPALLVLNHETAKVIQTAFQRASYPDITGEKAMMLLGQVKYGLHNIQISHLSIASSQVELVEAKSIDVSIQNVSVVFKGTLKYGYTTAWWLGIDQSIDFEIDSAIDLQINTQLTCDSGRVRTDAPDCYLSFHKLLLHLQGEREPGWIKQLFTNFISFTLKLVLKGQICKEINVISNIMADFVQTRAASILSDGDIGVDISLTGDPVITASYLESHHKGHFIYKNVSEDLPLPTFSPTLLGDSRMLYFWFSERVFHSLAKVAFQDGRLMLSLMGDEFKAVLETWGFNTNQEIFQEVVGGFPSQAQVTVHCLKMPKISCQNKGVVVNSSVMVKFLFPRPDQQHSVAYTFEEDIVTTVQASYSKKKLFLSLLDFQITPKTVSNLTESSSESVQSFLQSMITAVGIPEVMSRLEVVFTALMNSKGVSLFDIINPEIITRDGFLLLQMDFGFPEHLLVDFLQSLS
Protocol: CETP is obtained in partially purified form from human plasma by differential centrifugation and column chromatography and used for the test. To this end, human plasma is adjusted to a density of 1.21 g per ml using NaBr and centrifuged at 4° C. at 50 000 rpm for 18 h. The bottom fraction (d>1.21 g/ml) is applied to a Sephadex® Phenyl-Sepharose 4B (Pharmacia) column, washed with 0.15 M NaCl/0.001 M tris HCl pH 7.4 and then eluted with distilled water. The CETP-active fractions are pooled, dialysed against 50 mM sodium acetate pH 4.5 and applied to a CM-Sepharose® column (Pharmacia). The mixture is then eluted using a linear gradient (0-1 M NaCl). The pooled CETP fractions are dialysed against 10 mM Tris HCl pH 7.4 and then further purified by chromatography on a Mono Q® column (Pharmacia).
Measurement of the CETP-catalysed transfer of a fluorescent cholesterol ester between liposomes—modified according to the procedure of Bisgaier et al., J. Lipid Res. 34, 1625 (1993):
For the production of the donor liposomes, 1 mg of cholesteryl 4,4-difluoro-5,7-dimethyl-4-bora-3a,4a-diaza-s-indacene-3-dodecanoate (cholesteryl BODIPY® FL C12, Molecular Probes) is dissolved in 600 μl of dioxane with 5.35 mg of triolein and 6.67 mg of phosphatidylcholine with gentle warming in an ultrasonic bath and this solution is added very slowly with ultrasonication to 63 ml of 50 mM tris/HCl, 150 mM NaCl, 2 mM EDTA buffer pH 7.3 at RT.
The suspension is then ultrasonicated under an N2 atmosphere for 30 minutes in the Braukson ultrasonic bath at about 50 watts, the temperature being kept at about 20° C.
The acceptor liposomes are obtained analogously from 86 mg of cholesteryl oleate, 20 mg of triolein and 100 mg of phosphatidylcholine dissolved in 1.2 ml of dioxane and 114 ml of above buffer by ultrasonication at 50 watts (20° C.) for 30 minutes.
For testing, a test mix consisting of 1 part of above buffer, 1 part of donor liposomes and 2 parts of acceptor liposomes is used.
80 μl of test mix are treated with 1-3 μg of enriched CETP fraction, obtained from human plasma by means of hydrophobic chromatography, and 2 μl of the substance to be investigated in DMSO and incubated at 37° C. for 4 hours.
The change in the fluorescence at 485/535 nm is a measure of the CE transfer; the inhibition of the transfer in comparison to the control batch without substance is determined.

[2] = biological target: T2, CETP activity in the serum (Homo sapiens, UniProt P11597); assay: Measurement of the ex vivo activities on transgenic hCETP mice; assay type: in vivo; conditions: mouse, serum cholesteryl ester transport; for inhibition at 100 mg/kg: 100 mg/kg oral; for inhibition at 30 mg/kg: 30 mg/kg oral
T2 construct: from tissue; host or cells: serum of transgenic hCETP mice
T2 sequence (P11597 18-493): T1 sequence (P11597 18-493)
Protocol: To test for CETP-inhibitory activity, the substances are administered orally using a stomach tube to transgenic hCETP mice bred in-house (Dinchuk et al. BBA (1995) 1295-301). To this end, male animals are randomly assigned to groups having an equal number of animals, as a rule n=3, one day before the start of the experiment. Before administration of the substance, blood is taken from each mouse by puncture of the retro-orbital venous plexus for the determination of its basal CETP activity in the serum (T1). The test substance is then administered to the animals using the stomach tube. At specific times after administration of the test substance, blood is taken from the animals by puncture a second time (T2), as a rule 0.5, or 1 and 2 h after substance administration, but if appropriate this can also be carried out at another time.
In order to be able to assess the inhibitory activity of a substance, for each time, i.e. 0.5 or 1 or 2 h, a corresponding control group is employed whose animals only receive the formulating agent without substance. In the control animals, the second blood sampling per animal is carried out as in the substance-treated animals in order to be able to determine the change in the CETP activity without inhibitor over the corresponding experimental time interval (0.5, 1 or 2 h).
After termination of the clotting, the blood samples are centrifuged and the serum is removed by pipette.
For the determination of the CETP activity, the cholesteryl ester transport over 4 h is determined. To this end, as a rule 2 μl of serum are employed in the test batch and the test is carried out as described under “CETP fluorescence test”.
The differences in the cholesteryl ester transport [pM CE*/h (T2)−pM CE*/h (T1)] are calculated for each animal and averaged in the groups. A substance which at one of the times reduces the cholesteryl ester transport by >30% is regarded as active.

[3] = test system: HDL cholesterol; assay: Measurement of the in vivo activity in Syrian golden hamsters; conditions: peroral
Protocol: In experiments for the determination of the oral action on lipoproteins and triglycerides, test substance dissolved in DMSO and 0.5% suspended in Tylose are administered perorally by means of a stomach tube to Syrian golden hamsters bred in-house. For the determination of the CETP activity, before the start of the experiment blood is taken by retro-orbital puncture (about 250 μl). The test substances are then administered perorally by means of a stomach tube. The control animals receive identical volumes of solvent without test substance. […]
Clotting is terminated by incubation of 4° C. overnight, then centrifugation is carried out for 10 minutes at 6000×g. The content of cholesterol and triglycerides in the serum thus obtained is determined with the aid of modified commercially obtainable enzymatic tests (Ecolin 25 Cholesterol, 1.14830.0001 Merck Diagnostica; Ecoline 25 Triglycerides, 1.14856.0001 Merck Diagnostica). […]
10 μl of serum dilution are treated with 200 μl of Ecoline 25 reagent in 96-hole plates and incubated for 10 minutes at room temperature. The optical density is then determined at a wavelength of 490 nm using an automatic plate reader. The triglyceride or cholesterol concentration contained in the samples is determined with the aid of a standard curve measured in parallel. […]

[4] = test system: HDL; assay: Measurement of the in vivo activity in transgenic hCETP mice; conditions: stomach tube
Protocol: In experiments for the determination of the oral action on lipoproteins and triglycerides, test substance is administered to transgenic mice [Dinchuck et al., BBA, 1295-301 (1995)] using a stomach tube. Before the start of the experiment, blood is taken from the mice retro-orbitally in order to determine cholesterol and triglycerides in the serum. The serum is obtained as described above for hamsters by incubation at 4° C. overnight and subsequent centrifugation at 6000×g. […] The change in the parameters measured are expressed as the percentage change compared with the starting value.

[5] = 0.5 h after administration, read-out: % inhibition at 100 mg/kg 0.5 h
[6] = 1 h after administration, read-out: % inhibition at 100 mg/kg 1 h
[7] = 2 h after administration, read-out: % inhibition at 100 mg/kg 2 h
[8] = 0.5 h after administration, read-out: % inhibition at 30 mg/kg 0.5 h
[9] = 1 h after administration, read-out: % inhibition at 30 mg/kg 1 h
[10] = 2 h after administration, read-out: % inhibition at 30 mg/kg 2 h
[11] = 3 h after administration, read-out: % inhibition at 30 mg/kg 3 h
[12] = 6 h after administration, read-out: % inhibition at 30 mg/kg 6 h

IC50 [1]	inhibition at 30 mg/kg [2, 8]	inhibition at 30 mg/kg [2, 9]	inhibition at 30 mg/kg [2, 10]	inhibition at 30 mg/kg [2, 11]	inhibition at 30 mg/kg [2, 12]	Structure (SMILES)	inhibition at 100 mg/kg [2, 5]	inhibition at 100 mg/kg [2, 6]	inhibition at 100 mg/kg [2, 7]	% increase of HDL after 24 h (dose: 2 × 30 mg/kg) [3]	% increase of HDL after 4 d (dose: 4 × 30 mg/kg) [4]
	83%	76%	64%			COc1c([C@@H](O)CC(C)C)ccc2c1C(=O)OCc1c(Cl)c(C)c(Br)c(OC(=O)[C@]3(C)CC4C=CC3C4)c1O2 (stereo partly shown) [Example C-31]					
57 nM		66%		53%	14%	COc1c([C@@H](O)CC(C)C)ccc2c1C(=O)OCc1c(Cl)c(C)c(C3CC3)c(OC(=O)C3(C)C4CCC3CC4)c1O2 (stereo partly shown) [Example C-56]					
		52%		32%	26%	COc1c([C@@H](O)CC(C)C)ccc2c1C(=O)OCc1cc(C)c(C3CC3)c(OC(=O)C3(C)C4CCC3CC4)c1O2 (stereo partly shown) [Example C-59]					
32 nM		83%		65%	48%	COc1c([C@@H](O)CC(C)(C)C)ccc2c1C(=O)OCc1c(Cl)c(C)c(Br)c(OC(=O)C3(C)C4CCC3CC4)c1O2 (stereo partly shown) [Example C-63]				17%	
40 nM		60%		29%	7%	COCc1c(C)c(Cl)c2c(c1OC(=O)C1(C)C3CCC1CC3)Oc1ccc(C(O)CC(C)(C)C)c(OC)c1C(=O)OC2 (stereo not shown) [Example C-71]					
30 nM						COc1c([C@@H](O)CC(C)(C)C)ccc2c1C(=O)OCc1c(Cl)c(C)c(C)c(OC(=O)C3(C)C4CCC3CC4)c1O2 (stereo partly shown) [Example C-72]					68%
15 nM		91%		81%	56%	CCc1c(C)c(Cl)c2c(c1OC(=O)C1(C)C3CCC1CC3)Oc1ccc([C@@H](O)CC(C)(C)C)c(OC)c1C(=O)OC2 (stereo partly shown) [Example C-73]					56%
58 nM		75%		50%	20%	CCc1c(C)c(Cl)c2c(c1OC(=O)C1(C)C3CCC1CC3)Oc1ccc([C@@H](O)CC(C)C)c(OC)c1C(=O)OC2 (stereo partly shown) [Example C-118]					

Further lines, the compound ahead of its results:

Structure (SMILES)	IC50 [1]	inhibition at 30 mg/kg [2, 8]	inhibition at 30 mg/kg [2, 9]	inhibition at 30 mg/kg [2, 10]	inhibition at 30 mg/kg [2, 11]	inhibition at 30 mg/kg [2, 12]	inhibition at 100 mg/kg [2, 5]	inhibition at 100 mg/kg [2, 6]	inhibition at 100 mg/kg [2, 7]	% increase of HDL after 24 h (dose: 2 × 30 mg/kg) [3]	% increase of HDL after 4 d (dose: 4 × 30 mg/kg) [4]
COc1c([C@@H](O)CC(C)C)ccc2c1C(=O)OCc1cc(C)cc(OC(=O)CC(C)(C)C)c1O2 [Example A-23]	250 nM						59%	52%	31%		
COc1c([C@@H](O)CC(C)C)ccc2c1C(=O)OCc1c(Cl)c(C)c(Br)c(OC(=O)C3(C)CC4CCC3C4)c1O2 (stereo partly shown) [Example B-45]	70 nM	70%	71%	63%							
COc1c([C@@H](O)CC(C)C)ccc2c1C(=O)OCc1c(Br)c(C)c(Br)c(OC(=O)C3(C)CC4CCC3C4)c1O2 (stereo partly shown) [Example B-69]	100 nM	52%	55%	27%							
COc1c([C@@H](O)CC(C)C)ccc2c1C(=O)OCc1c(C)c(C)c(C)c(OC(=O)C3(C)CC4CCC3C4)c1O2 (stereo partly shown) [Example B-70]	150 nM	48%	30%	44%							
COc1c([C@@H](O)CC(C)C)ccc2c1C(=O)OCc1c(Cl)c(C)c(Cl)c(OC(=O)C3(C)CC4CCC3C4)c1O2 (stereo partly shown) [Example B-81]	60 nM	54%	59%	55%							
COc1c([C@@H](O)CC(C)C)ccc2c1C(=O)OCc1c(Cl)c(C)c(Cl)c(OC(=O)C3(C)CCCCC3)c1O2 [Example B-84]	100 nM	31%	28%	35%							
COc1c([C@@H](O)CC(C)C)ccc2c1C(=O)OCc1cc(C)cc(OC(=O)N3C4CCC3CC4)c1O2 [Example B-147]	200 nM						76%	54%	33%		

Reference: patent US20060247303A1, “7H-dibenzo[b,g][1,5]dioxocin-5-one derivatives and use thereof” (BAYER HEALTHCARE AG, priority 2002, published 2006)
